Where a SMILES comes first, the peptide text is derived from it. The star is where a group is joined. Cbz = O=C(OCc1ccccc1)*
Key:
proteasome = assay: PGAM5(Δ24) ubiquitination in HeLa cells; type: cell-based; conditions: HA-Ubiquitin and PGAM5(Δ24)-Myc
Description: HeLa cells are transiently co-transfected with HA-Ubiquitin, PGAM5(Δ24)-Myc, with or without XIAP or the treatment of MG132. Ubiquitination of PGAM5(Δ24)-Myc are addressed by immunoprecipitating with Myc antibody then blotting with HA antibody.
HeLa cells were transfected with Lipofectamine 2000 (Invitrogen). Cells were lysed either in M-PER mammalian protein extraction buffer (Thermo) or NP40 buffer (50 mM HEPES pH 7.4, 150 mM NaCl, 1% NP40), supplemented with protease inhibitor cocktail (Thermo). 10% SDS-polyacrylamide gel (PAGE) combined with MOPS running buffer was used to separate full length PGAM5 from the truncated form for immuno-blotting analysis. 4-12% SDS-PAGE gels were generally used for all other analysis. Immuno-precipitation with anti-Myc tag antibody (cell signaling) was performed with a standard procedure using manufacture's instructions.

Jurkat and HeLa cells = assay: Cytosolic PGAM5(Δ24) immunoblot in apoptotic cells; type: cell-based; conditions: 1 μM STS, 4 hours

Row | Compound | level of ubiquitination of PGAM5(Δ24) (proteasome) | cytosolic level of PGAM5(Δ24) (Jurkat and HeLa cells)
1 | CC(C)C[C@@H](C=O)NC(=O)[C@H](CC(C)C)NC(=O)[C@H](CC(C)C)NC(=O)OCc1ccccc1 [MG132] (Cbz-Leu-Leu-Leu-aldehyde) | increased | 
2 | CN[C@@H]1C[C@H]2O[C@@](C)([C@@H]1OC)n1c3ccccc3c3c4c(c5c6ccccc6n2c5c31)C(=O)NC4 [STS, staurosporin] |  | significant increase in PGAM5(Δ24)

Source: US20150010525A1, “Catalytic Tagging System to Study Macro-Molecular Interactions Using Engineered Ubiquitin Ligase and Ubiquitin-Like Proteins to Facilitate Substrate Identification” (THE REGENTS OF THE UNIVERSITY OF CALIFORNIA, priority 2012, published 2015)
